Results on four molecules are retold here after patent US7439223B2, “Nucleophosmin/B23-binding peptide to inhibit tumor growth and regulate transcriptional activity of p53” (Chang Gung University, priority 2005, dated 2008).

pIC50, pKd: −log10 of the molar value. ≈ marks a conversion by molar mass, not a printed value. Ends that are not written are not given here.

The test system of one data set is U1 bladder cancer cells. The data set can be described thus: U1 bladder cancer cell viability. The format is cell-based. The note with it: 24 hr, alone, read-out: concentration required to produce a 50% decrease in cell viability. As for the experimental part: (§1) Regarding the cells and antibodies, MGH-U1 was established from a Grade III bladder transitional cell carcinoma. U1 and Ras-3T3 cells were grown in RPMI 1640 medium supplemented with 10% fetal bovine serum and 1% antibiotics in 5% CO2 humidified incubator at 37° C. The number of viable cells was determined by trypan blue exclusion and counted with a hemocytometer. Antinucleophosmin/B23 mAb, Anti-p53 polyclonal antibody (pAb) and anti-GAPDH were provided.
U1 (3×10^5) cells were treated with doxorubicin (DOX, 0.032-1.0 μg/ml). […] After 24 hr of exposure, cells were counted and survival was expressed as the percentage of surviving cells relative to the untreated cells. […] The relative tumor volumes were expressed as percentages of the initial volumes at first day of treatments. *p<0.05, as compared with control mice. […]
(§2) FIGS. 3A-3F illustrate Nucleophosmin/B23 regulates the increase in protein expression of p53. […] Total cell lysates were analyzed by western immunoblotting using antibodies specific for p53 and GAPDH. […] Total cell lysates were analyzed by Western immunoblotting using antibodies specific for nucleophosmin/B23, p53 and GAPDH. […] After 3 hours, cells were harvested and were analyzed by Western immunoblotting using antibodies specific for p53 and GAPDH. […] The cell extracts containing equal amounts of proteins were analyzed for CAT activity and luciferase activities. […]

Data set [1] concerns Ras-3T3 cells. The data set can be described thus: tumor growth in nude mice, DOX, Rev or DOX+Rev subcutaneously adjacent to the tumors. The following applies: 20 μg/20 g body weight subcutaneously adjacent to the tumors daily for 5 days. It is filed as in vivo. Here is the method: Doxorubicin (DOX), an anthracycline anti-tumor antibiotic, is active against a number of human cancers.
U1 (3×10^5) cells were treated with doxorubicin (DOX, 0.032-1.0 μg/ml). […] After 24 hr of exposure, cells were counted and survival was expressed as the percentage of surviving cells relative to the untreated cells. Data represent means ±standard deviations; n=3. In FIG. 2D, each mouse was inoculated with 3×10^5 Ras-3T3 cells (one site/mouse). […] Tumor volumes of DOX (20 μg/20 g body weight), Rev (1 mg/20 g body weight), DOX (10 μg/20 g body weight)+Rev (0.5 mg/20 g body weight) and PBS-treated (control) mice were plotted (n=5). The relative tumor volumes were expressed as percentages of the initial volumes at first day of treatments. *p<0.05, as compared with control mice. A Student's t-test was used for statistical analysis. Results shown are representative of three independent experiments.

The subject of data set [2] is nucleophosmin/B23 over-expressed cells. The data set can be described thus: cytotoxic effect on nucleophosmin/B23 over-expressed cells.
Data set [3] relates to p53. The data set can be described thus: p53 expression level by western blotting in U1 cells. The format is cell-based. The following applies: 25-150 μM for 3 hours or 50 μM for 0.2-7 hours. As for the experimental part:
p53 protein is known to suppress tumor formation in vivo at least in part through its ability to induce cell death. The susceptibility of tumor cells to induction of cell death by cytotoxic drugs is modulated by p53 in many cases. It is then important for us to test whether the anti-tumor activity of nucleophosmin/B23-binding peptide is mediated through a p53 dependent regulation. […] The expression levels of p53 were measured by western blotting. […] In parallel, we transfected cells with a plasmid containing the luciferase reporter gene under the control of an artificial p53 target promoter (pGL13). […] Moreover, we analyzed whether the level of p53 changes upon siRNA mediated reduction of the intracellular amount of nucleophosmin/B23. […]
as §2
Background: A western blot detects proteins with antibodies after separation by electrophoresis.

Data set [4] relates to Ras-3T3 cells. The data set can be described thus: cytotoxic effect of peptides on Ras-3T3 cell viability. It is filed as cell-based. The following applies: for effect on cellular viability: 25 to 400 μM. As for the experimental part:
as §1
Rev-NLS (Rev), T-NLS and np-NLS peptides were synthesized. The primary sequences of the peptides and the dissociation constants of their interactions with nucleophosmin/B23 are shown in FIG. 4. Rev, T-NLS, and np-NLS peptides were applied to Ras-3T3 cells in parallel experiments at concentrations ranging from 25 to 400 μM.
In summary a review of the Figures is given. FIGS. 1A-1D, illustrate Nucleophosmin/B23-binding peptide inhibits tumor growth of Ras-3T3 cells and tumors in nude mice. […] After 24 hours of exposure, cells were counted and survival was expressed as the percentage of surviving cells relative to the untreated cells. Data represent means ±standard deviations; n=3. […] The colonies were stained and scored 12 days after seeding and the efficiencies were calculated as the percentage relative to the untreated cells. Values were expressed as the means ± standard deviations for three determinations. […] Mean tumor volume ±standard deviation for each treatment group was plotted (n=5). Statistical differences in tumor volumes were determined by Student's t-test. […] Tumor volumes of Rev- and PBS-treated (control) mice were plotted (n=5). A Student's t-test was used for statistical analysis. Results shown are representative of three independent experiments.

For data set [5], the system named is p53. The data set can be described thus: p53-dependent luciferase reporter (pGL13) in U1 cells. The format is cell-based. The note with it: 50-150 μM for 3 hours. The source says: pp53-TA-Luc contains a p53 response element, located upstream of the minimal TA promoter, the TATA box from the herpes simplex virus thymidine kinase promoter (PTA). Located downstream of PTA is the firefly luciferase reporter gene. Double stranded siRNA oligonucleotides against B23, siB23-297 (sense: 5′-[…]; and antisense: […]), and siB23-191 (sense 5′-[…] and antisense: […]) were synthesized. Two oligonucleotides were annealed and cloned into pSilencer™ siRNA expression vector by EcoR1 and Apa1.
Transfections were performed using Lipofectamine™ Reagent method. Before transfection, cells (2×10^5 per well) were seeded in 6-well plates overnight. […]
p53 protein is known to suppress tumor formation in vivo at least in part through its ability to induce cell death. […] The expression levels of p53 were measured by western blotting. […] Moreover, we analyzed whether the level of p53 changes upon siRNA mediated reduction of the intracellular amount of nucleophosmin/B23. […]
FIGS. 3A-3F illustrate Nucleophosmin/B23 regulates the increase in protein expression of p53. […] Total cell lysates were analyzed by western immunoblotting using antibodies specific for p53 and GAPDH. […] Total cell lysates were analyzed by Western immunoblotting using antibodies specific for nucleophosmin/B23, p53 and GAPDH. […] The cell extracts containing equal amounts of proteins were analyzed for CAT activity and luciferase activities. […]
A general note: In a reporter assay the amount or activity of a reporter protein is the signal.

Another data set relates to nucleophosmin/B23. The note with it: cited from earlier work.
The test system of data set [6] is tumors induced by Ras-3T3 cells. The data set can be described thus: nude mouse xenograft assay, intraperitoneal treatment. It is filed as in vivo, nude mice. The following applies: 10 mg/20 g body weight intraperitoneally once daily for 14 days, vs PBS. Here is the method:
Exponentially growing Ras-3T3 cells were harvested, washed and resuspended in PBS at 3×10^6 cells/ml. Tumor xenografts were established by inoculating one hundred microliters (100 μl) of the cell suspension subcutaneously into the right flanks of the nude mice. To assay the antitumor activity of Rev, T-NLS, and np-NLS peptides, they were administered to tumors as a systemic intraperitoneal or as a local subcutaneous treatment. For intraperitoneal treatment, mice were randomized into 4 groups of 5 animals after grafting.
Animals were treated once daily for 14 days beginning 48 hr after the inoculation of Ras-3T3 cells. […] Three-dimensional measurements were taken with electric caliper and the tumor volumes were calculated using the formula, V=4πxyz/3, where 2x, 2y and 2z were the three perpendicular diameters of the tumor. […] Statistical differences in the tumor volumes were analyzed by the student's t-test. […]
Next, a nude mouse xenograft assay was used to evaluate the antitumor effect of peptides on the growth of tumors induced by Ras-3T3 cells. […] During the course of treatment, tumor growth was monitored daily by caliper measurement.
In summary a review of the Figures is given. […] After 24 hours of exposure, cells were counted and survival was expressed as the percentage of surviving cells relative to the untreated cells. […]

In the case of `COc1cccc2c1C(=O)c1c(O)c3c(c(O)c1C2=O)C[C@@](O)(C(=O)CO)C[C@@H]3O[C@H]1C[C@H](N)[C@H](O)[C@H](C)O1` [DOX, Doxorubicin], the IC50 with U1 bladder cancer cells worked out at 0.08 µg/mL (≈ 0.147 µM). Besides, the “tumor growth versus PBS control” value in the data set on Ras-3T3 cells [1] is reported as “grew more slowly”.
With ARRNRRRRWREYC-NH2 [Rev peptide], the “dose needed to exert similar cytotoxic effect” value in data set [2] was “higher doses”.
Regarding “KRPAATKKAGQAKKKKYC (listed as Homo sapiens) [np-NLS]”, the “intracellular amount of p53 (protein expression)” value in the data set on p53 [3] is “No such increases”. The “effect on cellular viability” value in the data set on Ras-3T3 cells [4] is listed as “little or virtually no effect”. Moreover, the activity against cells result in the data set on Ras-3T3 cells [4] (at 1 mM (data not shown)) is recorded as “no activity”. The “increase in p53-dependent transcription from the pGL13 promoter” value in the data set on p53 [5] is “No such increases”. Also, the “binding affinity toward nucleophosmin/B23” value with nucleophosmin/B23 (in words) was “no binding affinity”. Besides, the “inhibition of tumor growth” value in data set [6] is “No inhibition of tumor growth”.
In the case of PKKKRKVEDPYC [T-NLS, PKKKRKVE DPYC], the “effect on cellular viability” value in the data set with Ras-3T3 cells [4] was “little or virtually no effect”. Further, the pIC50 in the data set with Ras-3T3 cells [4] (read-out: concentration at which there was a 50% decrease in cell viability) was roughly 3.00. Further, on nucleophosmin/B23 (read-out: kd of interaction with nucleophosmin/B23), the pKd is 6.08. In addition, the “inhibition of tumor growth” value in data set [6] is recorded as 63.6%.
